Measurements reported in patent publication US8648112B2, “Therapeutic uses of urolithins” (The Regents of the University of California, priority 2006, dated 2014).

Experiments:
[1] = system: LNCaP-AR prostate cancer cell line; test: Antiproliferative cell assay (CellTiter-Glo), LNCaP-AR; format: cell-based, human; settings: Homo sapiens, 48 h exposure, read-out: IC50 against prostate cancer cell line LNCap-AR
Description: (§1) Cell Culture Materials. The 22Rv1, DU145, LNCaP and PC3 prostate cancer cell lines were obtained from American Type Culture Collection (ATCC, Rockville, Md.). The LNCaP-AR and Hi-Myc cell lines were a kind donation by Dr. C. Sawyers (David Geffen School of Medicine, UCLA, Los Angeles, Calif.). DU145, 22Rv1, LNCaP, LNCaP-AR, and PC3 cells were grown in RPMI 1640; Hi-Myc cells were grown in Isecove's Modified Dulbecco's Medium. All media contained 10% fetal bovine serum (FBS) in the presence of 100 U/mL penicillin and 0.1 g/L streptomycin. RWPE-1 prostate cells were grown in Defined Keratinocyte Serum Free Medium (DKSFM) containing epidermal growth factor (EGF), insulin and fibroblast growth factor (FGF). Cells were incubated at 37° C. with 95% air and 5% CO2. All cells were maintained below passage 20 and used in experiments during the linear phase of growth.
(§2) Proliferation was measured utilizing the CellTiter-Glo® Luminescent Cell Viability Assay (Technical Bulletin #288, Promega Corp., Madison, Wis.). When added to cells, the assay reagent produces luminescence in the presence of ATP from viable cells. Cells were plated in 96-well plates at a density of 10,000 cells/well and incubated for 24 hours. Test samples were solubilized in DMSO by sonication, filter sterilized and diluted with media to the desired treatment concentration. Cells were treated with 100 μLcontrol media, vehicle control (DMSO<0.2% of total) or test samples and incubated for 48 h drug exposure duration at 6.25, 12.5, 25, 50 and 100 μg/mL concentrations. At the end of 48 h, plates were equilibrated at room temperature for 30 min; 100 μL of the assay reagent was added to each well and cell-lysis was induced on an orbital shaker for 2 min. Plates were incubated at room temperature for 10 min to stabilize the luminescence signal and results were read on an Orion Microplate Luminometer (Bertholds Detection Systems, Pforzheim, Germany). All plates had control wells containing medium without cells to obtain a value for background luminescence. Data are expressed as percentage of untreated cells (i.e. treatment value-blank/vehicle value-blank), mean±SE for three replications.

[2] = system: human colon cancer cell line HCT-116; test: Antiproliferative activity against colon cancer cells (CellTiter-Glo); format: cell-based; settings: 100 μg/mL, 48 hrs
Description: (§3) EA and EA-metabolites (gallic and gallagic acids, urolithin B and methylated-urolithin A) were evaluated for antiproliferative activity against the human colon cancer cell line HCT-116. The cells were grown to a concentration of 10,000 cells per well in a 96 well format; and were then resuspended in medium containing vehicle control or the indicated compound: Ellagic acid, urolithin A, methyl urolithin A, or urolithin B, at a concentration of 100 μg/mL. The cells were incubated for 48 hrs, and the viability assayed by the CellTiter-Glo® Luminescent Cell Viability Assay (Technical Bulletin #288, Promega Corp., Madison, Wis.).

[3] = system: DU145 prostate cancer cell line; test: Antiproliferative cell assay (CellTiter-Glo), DU145; format: cell-based, human; settings: Homo sapiens, DU-145, 48 h exposure, read-out: IC50 against prostate cancer cell line DU145
Description: as §1, §2

[4] = system: Hi-Myc prostate cancer cell line; test: Antiproliferative cell assay (CellTiter-Glo), Hi-Myc; format: cell-based; settings: Hi-Myc (mouse), 48 h exposure, read-out: IC50 against prostate cancer cell line HiMyc
Description: as §1, §2

[5] = system: PC3 prostate cancer cell line; test: Antiproliferative cell assay (CellTiter-Glo), PC3; format: cell-based, human; settings: Homo sapiens, 48 h exposure, read-out: IC50 against prostate cancer cell line PC3
Description: as §1, §2

[6] = system: human pancreatic cancer cell line BXPC-3; test: Antiproliferative activity against pancreatic cancer cells (CellTiter-Glo), BXPC-3; format: cell-based; settings: 100 μg/mL, 48 hrs
Description: as §3, with “pancreatic” for “colon”, “lines ASPC-1 and BXPC-3.” for “line HCT-116.”, “well;” for “well in a 96 well format;”, “containing the” for “containing”, “byCellTiter-Glo®” for “by the CellTiter-Glo®”

[7] = system: LNCaP prostate cancer cell line; test: Antiproliferative cell assay (CellTiter-Glo), LNCaP; format: cell-based, human; settings: Homo sapiens, 48 h exposure, read-out: IC50 against prostate cancer cell line LNCaP
Description: as §1, §2

22Rv1 cells = test: Assessment of apoptosis (Cell Death Detection ELISA), 22Rv1; format: cell-based, human; settings: 48 h, p=0.05
Description: (§4) Assessment of apoptosis. Apoptosis was assessed utilizing the Cell Death Detection ELISAPLUS Assay (Boehringer Mannheim, Indianapolis, Ind.). This assay is a photometric enzyme-linked immunoassay that quantitatively measures the internucleosomal degradation of DNA, which occurs during apoptosis. Specifically, the assay detects histone associated mono- and oligonucleosomes, which are indicators of apoptosis. Cells (22RV1, PC-3, LNCaP, LNCaP-AR), were plated in 60 mm dishes at a density of 100,000 cells/dish and allowed to attach for 24 hours. Cells were treated with vehicle control (100% DMSO; 0.3% final concentration), or urolithin B (0-50 μg/mL or 0-236 μM) for 48 hours. Following treatments, non-adherent cells were collected and pelleted at 200×g for ten minutes. The supernatant was discarded; the cell pellet was washed with cold CMF-PBS and re-centrifuged. […] Both live and dead cells were then counted via trypan blue exclusion (Pierce, Rockford, Ill.) and equal numbers of cells were added to the microtiter plate for all treatment groups and apoptosis assay was performed according to the manufacturer's instructions. Data are expressed as absorbance at 405 nm of each sample over vehicle controls as follows=treatment value-blank/vehicle value-blank.

[8] = system: 22Rv1 prostate cancer cell line; test: Antiproliferative cell assay (CellTiter-Glo), 22Rv1; format: cell-based, human; settings: Homo sapiens, 22Rv1, 48 h, 48 h exposure, read-out: IC50 against prostate cancer cell line 22 Rv1
Description: as §1, §2

LNCaP cells = test: Assessment of apoptosis (Cell Death Detection ELISA), LNCaP; format: cell-based, human; settings: 48 h, p=0.01
Description: as §4

[9] = system: human pancreatic cancer cell line ASPC-1; test: Antiproliferative activity against pancreatic cancer cells (CellTiter-Glo), ASPC-1; format: cell-based; settings: 100 μg/mL, 48 hrs
Description: as §3, with “pancreatic” for “colon”, “lines ASPC-1 and BXPC-3.” for “line HCT-116.”, “well;” for “well in a 96 well format;”, “containing the” for “containing”, “byCellTiter-Glo®” for “by the CellTiter-Glo®”

PC3 cells = test: Assessment of apoptosis (Cell Death Detection ELISA), PC3; format: cell-based, human; settings: 48 h, p=0.05
Description: as §4

LNCaP-AR cells = test: Assessment of apoptosis (Cell Death Detection ELISA), LNCaP-AR; format: cell-based, human; settings: 48 h, p=0.01
Description: as §4

IC50 [1]: 28.5 µM
IC50 [3]: 59.4 µM
IC50 [4]: 59.9 µM
IC50 [5]: 127 µM
IC50 [7]: 90.5 µM
IC50 [8]: 118 µM
Structure (SMILES): O=c1oc2cc(O)ccc2c2ccccc12 [Urolithin B, 3-hydroxy-6H-dibenzo[b,d]pyran-6-one]
anti-proliferative activity, rank order [2]: urolithin A is the most active, then ellagic acid, urolithin B and methyl urolithin A
anti-proliferative activity, rank order [6]: urolithin A is the most active, then ellagic acid, urolithin B and methyl urolithin A
concentration showing statistically significant pro-apoptotic effect (22Rv1 cells): 59 µM
concentration showing statistically significant pro-apoptotic effect (LNCaP cells): 118 µM
anti-proliferative activity, rank order [9]: urolithin A is the most active, then ellagic acid, urolithin B and methyl urolithin A
concentration showing statistically significant pro-apoptotic effect (PC3 cells): 29.5 µM
concentration showing statistically significant pro-apoptotic effect (LNCaP-AR cells): 59 µM
